From the supplement of paper PMC10307832

Columns and labels:
Test in all cases: relative viability (nuclei count vs DMSO), 5 days (fraction); higher = more cells survive
Erlotinib = compound: C#Cc1cccc(Nc2ncnc3cc(OCCOC)c(OCCOC)cc23)c1 [Erlotinib]
Outline: (§1)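 Lung cancer cell lines received five library-drug doses (not always all listed) spaced by √10, pinned on vehicle-anchored 1536-well plates after an overnight stay at 37 °C. Five days later, with no medium change, nuclei were Hoechst-stained, imaged at 4× and counted with MetaXpress. Viability is treated-well nuclei relative to vehicle-well nuclei, as a median across plates. Passing plates had control CV below 25% and at least one doubling.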

Phenformin = compound: N=C(N)NC(=N)NCCc1ccccc1 [Phenformin] (anchor plate); conditions: 250 µM
Outline: as §1

AT9283 = compound: O=C(Nc1c[nH]nc1-c1nc2ccc(CN3CCOCC3)cc2[nH]1)NC1CC1 [AT9283]
Outline: as §1

Cell Line	relative viability (Erlotinib; 0.02 µM)	relative viability (Erlotinib; 0.2 µM)	relative viability (Erlotinib; 0.6325 µM)	relative viability (Erlotinib; 2 µM)	relative viability (Phenformin)	relative viability (AT9283; 0.003 µM)	relative viability (AT9283; 0.03 µM)	relative viability (AT9283; 0.09487 µM)	relative viability (AT9283; 0.3 µM)
LU99A	0.932	0.952	0.913	0.916	0.886	0.88	0.477	0.253	0.186
NCI-H650	0.827	0.974	1.06	0.806	0.464	0.835	0.883	0.633	0.204
NCI-H522	0.949	1.03	0.86	0.816	0.639	0.776	0.618	0.611	0.464
HCC-827	0.549	0.185	0.177	0.208	0.4	0.985	0.855	0.618	0.358
201T	0.963	0.957	0.946	0.865	0.45	0.909	0.97	0.537	0.361
Calu-6	1.01	0.986	1.01	0.907		1.01	0.299	0.246	0.273
NCI-H2009	1.07	0.998	1.08	0.996	0.485	1.03	0.859	0.423	0.26
EKVX	0.962	0.587	0.43	0.215	0.231	0.915	0.858	0.629	0.324
LC-2-ad	0.998	1.08	1.01	0.826	0.605	0.93	0.695	0.233	0.177
HCC-15	1.05	0.97	1.08	0.888	0.491	0.955	0.589	0.325	0.17
EBC-1	0.977	0.988	0.978	0.897		0.969	0.289	0.164	0.165
PC-3 [JPC-3]	0.945	0.636	0.459	0.407	0.469	1.03	0.961	0.868	0.498
ChaGo-K-1	0.977	1.05	1.04	0.903	0.514	0.849	0.91	0.451	0.396
LK-2	0.993	0.864	1.36		0.485	0.937	0.57	0.168	0.195
LOU-NH91	0.831	0.696	0.756	0.68	0.705	0.936	0.812	0.614	0.48
NCI-H596	0.992	0.861	0.933	0.91	0.733	0.935	0.955	0.909	0.539
NCI-H3122	0.987		1	0.977	0.386	0.982	0.963	0.619	0.236
NCI-H647	0.878	0.829	1.08	0.912	0.554	0.902	0.434	0.167	0.11
EMC-BAC-2	0.743	1.04	1.1	0.979	0.558	0.907	0.463	0.319	0.221
